Source: PubChem BioAssay AID248 (DTP/NCI, 2004)
Several values for one entry are separate records, joined by “and”; a condition that tells them apart may be missing. Equal values may be shown once. Inconclusive results and toxic doses are left out. No stated cut-off is given here; in the data, active means T/C of 150% or more; inactive means T/C below 125%.

Tested on: L1210 leukemia ip in BDF1 mice, survival T/C
Test: NCI In Vivo Anticancer Drug Screen. Data for tumor model L1210 Leukemia (intraperitoneal) in B6D2F1 (BDF1) mice
Conditions: endpoint: mean survival time, higher = longer survival
How it was run: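 Transplanted-tumor mice were given test agent; controls received vehicle only. Survival readings from the two groups were divided (treated over control).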

[1] = dose: 100.0 mg/kg/injection, schedule: Q01DX001 (ip), vehicle: saline
[2] = dose: 200.0 mg/kg/injection, schedule: Q01DX001 (ip), vehicle: saline
[3] = dose: 400.0 mg/kg/injection, schedule: Q01DX001 (ip), vehicle: saline
[4] = dose: 100.0 mg/kg/injection, schedule: Q01DX009 (ip), vehicle: Klucel (hydroxypropylcellulose) (HPC)
[5] = dose: 200.0 mg/kg/injection, schedule: Q01DX009 (ip), vehicle: Klucel (hydroxypropylcellulose) (HPC)
[6] = dose: 50.0 mg/kg/injection, schedule: Q01DX009 (ip), vehicle: saline with Tween-80
[7] = dose: 100.0 mg/kg/injection, schedule: Q01DX009 (ip), vehicle: saline with Tween-80
[8] = dose: 100.0 mg/kg/injection, schedule: Q04DX003 (ip), vehicle: saline
[9] = dose: 100.0 mg/kg/injection, schedule: Q04DX002 (ip), vehicle: Klucel (hydroxypropylcellulose) (HPC)
[10] = dose: 200.0 mg/kg/injection, schedule: Q04DX002 (ip), vehicle: Klucel (hydroxypropylcellulose) (HPC)
[11] = dose: 400.0 mg/kg/injection, schedule: Q04DX002 (ip), vehicle: Klucel (hydroxypropylcellulose) (HPC)
[12] = dose: 100.0 mg/kg/injection, schedule: Q04DX003 (ip), vehicle: saline with Tween-80
[13] = dose: 200.0 mg/kg/injection, schedule: Q04DX003 (ip), vehicle: saline with Tween-80
[14] = dose: 400.0 mg/kg/injection, schedule: Q04DX003 (ip), vehicle: saline with Tween-80

Measured: T/C

CC1(N)COP(=O)(NCCCN2CCOCC2)OC1 (stereo not drawn)
inactive: [1] 96 % of control | [2] 96 % of control | [3] 96 % of control

CCOC(=O)c1ccc(NC(=O)Nc2ccc(F)cc2)cc1
inactive: [4] 90 % of control | [5] 90 % of control

Cc1c(NC(=O)Nc2cccc(C(F)(F)F)c2)c(=O)n(-c2ccccc2)n1C
inactive: dose: 25.0 mg/kg/injection, schedule: Q01DX009 (ip), vehicle: Klucel (hydroxypropylcellulose) (HPC) 88 % of control | dose: 50.0 mg/kg/injection, schedule: Q01DX009 (ip), vehicle: Klucel (hydroxypropylcellulose) (HPC) 86 % of control | [5] 96 % of control

Cc1cc(C)c(C(=O)O)cc1C
inactive: dose: 75.0 mg/kg/injection, schedule: Q01DX001 (ip), vehicle: saline 102 % of control | dose: 150.0 mg/kg/injection, schedule: Q01DX001 (ip), vehicle: saline 94 % of control | dose: 300.0 mg/kg/injection, schedule: Q01DX001 (ip), vehicle: saline 102 % of control

CC(C)(O)C(=O)NC/C=C/c1ccccc1
inactive: dose: 25.0 mg/kg/injection, schedule: Q01DX009 (ip), vehicle: saline with Tween-80 93 % of control | [6] 93 % of control | [7] 93 % of control

C[S+]1CCSCC1
inactive: dose: 25.0 mg/kg/injection, schedule: Q04DX003 (ip), vehicle: saline 90 % of control | dose: 50.0 mg/kg/injection, schedule: Q04DX003 (ip), vehicle: saline 87 % of control | [8] 117 % of control

CC1C[N+](C)=C(c2ccc(O)cc2)S1 (stereo not drawn)
inactive: dose: 50.0 mg/kg/injection, schedule: Q01DX001 (ip), vehicle: saline with Tween-80 103 % of control | dose: 100.0 mg/kg/injection, schedule: Q01DX001 (ip), vehicle: saline with Tween-80 107 % of control

O=C1OC(c2cccc(Cl)c2)=N/C1=C\c1cccc([N+](=O)[O-])c1
inactive: [9] 103 % of control | [10] 100 % of control | [11] 103 % of control

Nc1ccc2ncccc2c1
inactive: dose: 25.0 mg/kg/injection, schedule: Q01DX009 (ip), vehicle: saline 97 % of control | dose: 50.0 mg/kg/injection, schedule: Q01DX009 (ip), vehicle: saline 93 % of control | dose: 100.0 mg/kg/injection, schedule: Q01DX009 (ip), vehicle: saline 105 % of control and 90 % of control | dose: 100.0 mg/kg/injection, schedule: Q04DX002 (ip), vehicle: alcohol 96 % of control | [8] 94 % of control | dose: 200.0 mg/kg/injection, schedule: Q01DX009 (ip), vehicle: saline 90 % of control | dose: 200.0 mg/kg/injection, schedule: Q04DX002 (ip), vehicle: alcohol 101 % of control | dose: 200.0 mg/kg/injection, schedule: Q04DX003 (ip), vehicle: saline 96 % of control | dose: 400.0 mg/kg/injection, schedule: Q04DX002 (ip), vehicle: alcohol 109 % of control | dose: 400.0 mg/kg/injection, schedule: Q04DX003 (ip), vehicle: saline 107 % of control

Nn1c(-c2cccc(O)c2)nnc1-c1cccc(O)c1
inactive: [1] 104 % of control | [2] 95 % of control | [3] 101 % of control

Cc1ccc(S(=O)(=O)N(C)c2ccc(C(=O)O)c3ccccc23)cc1
inactive: [12] 105 % of control | [13] 97 % of control | [14] 100 % of control

COC(=O)Cc1cc(Cl)c2cc(C)ccc2n1
inactive: dose: 100.0 mg/kg/injection, schedule: Q01DX001 (ip), vehicle: other 95 % of control | dose: 200.0 mg/kg/injection, schedule: Q01DX001 (ip), vehicle: other 98 % of control | dose: 400.0 mg/kg/injection, schedule: Q01DX001 (ip), vehicle: other 96 % of control

CCN(CC)CCCNc1nc(C(Cl)(Cl)Cl)nc2ccc(I)cc12
inactive: [4] 96 % of control | [5] 100 % of control

CC1(C)CCC(C)(C)C2CC3C(CC21)C(C)(C)CCC3(C)C (stereo not drawn)
inactive: [1] 109 % of control | [2] 112 % of control | [3] 100 % of control

CCOC(=O)C(C=Nc1ccc(S(N)(=O)=O)cc1)C(=O)OCC
inactive: [12] 105 % of control | [13] 92 % of control | [14] 92 % of control

CC(C)C(NC(=O)NCCCl)c1ccccc1 (stereo not drawn)
inactive: dose: 100.0 mg/kg/injection, schedule: Q04DX003 (ip), vehicle: Klucel (hydroxypropylcellulose) (HPC) 88 % of control | dose: 200.0 mg/kg/injection, schedule: Q04DX003 (ip), vehicle: Klucel (hydroxypropylcellulose) (HPC) 88 % of control

Cc1ccc(S(=O)(=O)N2CC(O)C(O)C2Cn2cnc3c(N)ncnc32)cc1 (stereo not drawn)
inactive: dose: 50.0 mg/kg/injection, schedule: Q04DX002 (ip), vehicle: saline 96 % of control | dose: 100.0 mg/kg/injection, schedule: Q04DX002 (ip), vehicle: saline 102 % of control | dose: 200.0 mg/kg/injection, schedule: Q04DX002 (ip), vehicle: saline 102 % of control

CC1(C(=O)O)NC(C(=O)O)CS1 (stereo not drawn)
inactive: dose: 5.0 mg/kg/injection, schedule: Q01DX001 (ip), vehicle: saline 96 % of control | dose: 10.0 mg/kg/injection, schedule: Q01DX001 (ip), vehicle: saline 108 % of control | dose: 20.0 mg/kg/injection, schedule: Q01DX001 (ip), vehicle: saline 104 % of control | dose: 40.0 mg/kg/injection, schedule: Q01DX001 (ip), vehicle: saline 102 % of control | dose: 80.0 mg/kg/injection, schedule: Q01DX001 (ip), vehicle: saline 98 % of control

COCc1ccc(N2C(N)=NC(N)=NC2(C)C)cc1
inactive: [8] 95 % of control

CC(C)(C)C1CCC(C(N)=O)CC1 (stereo not drawn)
inactive: [9] 103 % of control | [10] 107 % of control | [11] 103 % of control

O=C(CCCCCCCCCCBr)OCc1ccccc1
inactive: dose: 100.0 mg/kg/injection, schedule: Q01DX001 (ip), vehicle: saline sonified 103 % of control | dose: 200.0 mg/kg/injection, schedule: Q01DX001 (ip), vehicle: saline sonified 99 % of control | dose: 400.0 mg/kg/injection, schedule: Q01DX001 (ip), vehicle: saline sonified 105 % of control

Clc1ccc(N=Nc2ccccn2)cc1
inactive: [9] 101 % of control | [10] 96 % of control | [11] 93 % of control

COc1ccc(C23OC2Oc2cc(OC4CCCCO4)ccc2C3O)cc1 (stereo not drawn)
inactive: dose: 50.0 mg/kg/injection, schedule: Q01DX001 (sc), vehicle: steriod suspending solution 101 % of control | dose: 100.0 mg/kg/injection, schedule: Q01DX001 (sc), vehicle: steriod suspending solution 101 % of control | dose: 200.0 mg/kg/injection, schedule: Q01DX001 (sc), vehicle: steriod suspending solution 101 % of control | dose: 400.0 mg/kg/injection, schedule: Q01DX001 (sc), vehicle: steriod suspending solution 95 % of control

Cc1cccc(C)c1NC(=O)NS(=O)(=O)c1ccccc1
inactive: [6] 90 % of control | [7] 100 % of control | dose: 100.0 mg/kg/injection, schedule: Q04DX003 (ip), vehicle: acetone 95 % of control | dose: 200.0 mg/kg/injection, schedule: Q01DX009 (ip), vehicle: saline with Tween-80 95 % of control | dose: 200.0 mg/kg/injection, schedule: Q04DX003 (ip), vehicle: acetone 103 % of control
